Source: patent US5571518A, “Cosmetic compositions containing tricholine citrate” (priority 1995, dated 1996)

Key:
Assay type in all cases: cell-based
[1] = test system: human keratinocytes; test: DNA synthesis in keratinocytes (3H-thymidine incorporation, keratinocyte proliferation)
Text: The incorporation of ^3 H-thymidine by cultured keratinocytes was used as an assay of keratinocyte proliferation. Thymidine is one of four deoxynucleosides which are the monomeric units of DNA, the universal library of genetic information in the animal kingdom. Prior to cell division of a somatic cell such as a keratinocyte, the complete genome of the cell undergoing cell division is replicated. This involves large scale DNA synthesis by the cell and enables both daughter cells to receive identical copies of the genetic material. When ^3 H-thymidine is included in the culture media of keratinocytes which are synthesizing DNA in preparation for cell division then the labelled nucleoside is incorporated into the newly synthesized DNA. The extent of incorporation of ^3 H-thymidine into a population of cells is proportional to the rate of DNA synthesis by this population of cells and therefore an indication of their cellular proliferation.
1. Normal human keratinocytes isolated from neonatal foreskins by trypsin treatment were grown in DME medium/5% fetal calf serum in the presence of mitomycin C treated 3T3 mouse fibroblasts for establishing dividing keratinocyte colonies. Keratinocytes were grown under the above condition until their third passage.
2. For the experiments, third passage keratinocytes were plated into a serum-free keratinocyte growth medium (KGM; obtained from Clonetics, San Diego, Calif.) containing 0.09 mM calcium. 20,000 to 30,000 cells were plated into each well of 24 well cell culture plates and grown for 5 days, until the cells reach about 80% confluence.
3. Medium was changed to fresh medium and the various test materials were added to the medium from an ethanolic stock solution. The final ethanol concentration in the cultures was kept below 0.2%. Control cultures received no tested material but were dosed with 0.2% ethanol. Each compound or combination was tested in three separate wells. In four hours, 1 uCi of ^3 H-thymidine (Amersham Corp., Sp activity 40 Ci/mmol) was added to the 1 ml medium in each well. The cells were incubated overnight and 24 hours later the amount of ^3 H-thymidine associated with the cellular DNA of keratinocytes was assessed as described below.
4. The medium was aspirated, and the wells washed with 1 ml phosphate-buffered saline. The DNA and proteins of the cells in the plate were then precipitated by adding 1 ml of ice-cold 10% trichloroacetic acid (TCA). The plates were left on ice for 30 minutes to complete the precipitation process. TCA was then aspirated and each well was then washed four times with 5% TCA. The plates were then dried on a filter pad and the cells in the wells were dissolved in 0.5 ml of 0.1N sodium hydroxide. The sodium hydroxide was then neutralized using 0.1N hydrochloric acid and the solution (1 ml total volume) was then transferred to a scintillation vial. 50 μl samples from each vial were used for protein assay using BCA protein assay reagent obtained from Pierce Chemical Company. 8 ml of a scintillation fluid (Ecolume) was added to the rest of the solution in the vial, and the vials were counted in a scintillation counter to determine the amount of radioactivity in each vial. The DNA synthesis rate was then calculated as cpm ^3 H thymidine incorporated into total cellular DNA/microgram of cell protein for each individual well.

[2] = test system: human keratinocytes; test: Cornified envelope (CE) formation, marker of terminal differentiation of keratinocytes
Procedure: (§1) Human keratinocytes, isolated from neonatal foreskin by trypsin treatment were grown in Dulbecco Modification Eagle (DME) Hams F12 (3:1) medium/5% fetal calf serum in the presence of mitomycin C treated 3T3 mouse fibroblasts for establishing dividing keratinocyte colonies. Cells were grown under the above condition until their second passage and kept frozen for future use. Frozen second passage keratinocytes were thawed and plated into the above medium and grown for five days. On day 5, when the cells were 70-80% confluent, they were trypsinized and plated in the serum-free medium for the various experiments.
During the process of terminal differentiation in the epidermis, a 15 nm thick layer of protein, known as the cornified envelope (CE)is formed on the inner surface of the cell periphery. The CE is composed of numerous distinct proteins which have been cross-linked together by the formation of N ^ε -(-γ-glutamyl) lysine isodipeptide bonds catalyzed by the action of at least two different transglutaminases expressed in the epidermis. Transglutaminase (TG-1) is expressed in abundance in the differentiated layers of the epidermis, especially the granular layer, but is absent in the undifferentiated basal epidermis. Thus, TG-1 is a useful marker of epidermal keratinocyte differentiation with high TG-1 levels indicating a more differentiated state. An ELISA based TG-1 assay, using a TG-1 antibody, was used to assess the state of differentiation of the cultured keratinocytes in the examples that follow.
Proper skin conditioning require enhanced proliferation and differentiation of epidermal keratinocytes. The different citrate esters were tested on their effect on cornified envelope (CE) formation, a marker of terminal differentiation of keratinocytes. Citrate esters were tested at 1 mM levels in medium containing 0.15 mM Ca. Levels are expressed as % of control ±SD. The CE formation for the control was 54.48 ±31.8 cpm/μg cell protein.

[3] = test system: human keratinocytes; test: 3H choline incorporation into phospholipids of keratinocytes
Procedure: as §1
Choline acts as an essential nutrient for the cellular phospholipid biosynthesis of keratinocytes. Choline present in the medium is used up by the cells for phospholipid biosynthesis. If TCC provides choline for the cells it will complete with the choline in the medium for incorporation into cellular phospholipids. When cells are incubated with ^3 H-labelled choline, its incorporation into phospholipids will be decreased by the presence of unlabelled choline or TCC in the medium.
[…] The wells were washed, total lipids were extracted using Bleigh Dyer method as described above and the total counts in the chloroform phase was determined. To ascertain that the counts are present only in the phospholipid fraction, the amount of ^3 H choline incorporated into the different lipid fractions were quantitated by running TLC of the fractions in the above solvent system, and the amount of radioactivity in the phospholipid fraction (origin) was quantitated using BioScan plate reader. The cpm of ^3 H choline was plotted against the amount of cold choline or TCC added in the medium to assess the competition between choline supplied from TCC with ^3 H choline.
The amount of ^3 H choline incorporated into cellular phospholipids was determined and expressed as % of controls.

[4] = Homo sapiens, Keratinocyte, 24 h, read-out: Rate of DNA synthesis
[5] = Homo sapiens, Keratinocyte, 48 h, read-out: 3H choline incorporated into cellular phospholipids

Compound: O=C(O)CC(O)(CC(=O)O)C(=O)O [Citric acid, citric acid]
- activity at 0.1 µM [1, 4]: 88.4 ± 15.5%
- activity at 1 µM [1, 4]: 74.5 ± 32.2%
- activity at 10 µM [1, 4]: 89.9 ± 20.3%
- activity at 100 µM [1, 4]: 88.7 ± 5.1%
- activity at 1000 µM [1, 4]: 63.9 ± 11.8%
- activity at 10000 µM [1, 4]: 4.25 ± 2.2%
- keratinocyte proliferation, result in words ([1]; summary in Example 2): inhibit both proliferation and differentiation of keratinocytes
- cornified envelope formation / keratinocyte differentiation, result in words ([2]; 1 mM, 0.15 mM Ca): inhibited cornified envelope formation significantly
- activity at 1000 µM ([2]; Homo sapiens, Keratinocyte, read-out: CE Levels): 13.7 ± 1.1%
- keratinocyte differentiation, result in words ([2]; summary of Example 2): inhibit both proliferation and differentiation of keratinocytes
- choline incorporation into phospholipid fraction, result in words ([3]; 48 hours): no significant effect on choline incorporation into phospholipid fraction
- activity at 10 µM [3, 5]: 91.4 ± 12.7%
- activity at 100 µM [3, 5]: 77.5 ± 19.5%
- activity at 1000 µM [3, 5]: 74.1 ± 28.8%
